The source of these data is a melting point compilation (Tetko et al.; mined from patent text by program, amines drawn as free bases though some values may be those of a salt).

Each structure is given as a SMILES string. Some results are limits rather than exact numbers.

For the compound `O=C(O)CN1C(=O)C(NC(=O)Nc2ccc(Cl)cc2)N=C(c2ccccc2)c2ccccc21` (stereo not drawn), the melting point lay in the range of 178 to 180 °C. On to `Cc1cc(N(C)C)ccc1C1(N(c2ccc(N(C)C)cc2)c2ccc(N(C)C)cc2)OC(=O)c2ccccc21` (stereo not drawn), for which the melting point was 97 to 113 °C. Then `Cc1ccc2nc(-n3nc4c(c3O)-c3ccccc3CC4)sc2c1`, with 218 to 219 °C. Consider `Cc1nc(C(F)(F)F)ccc1C(=O)C1=C(Sc2ccccc2)CCCC1=O`, for which the melting point was in the range of 124 to 125 °C. Then `Cc1ccc(C)c(C(=O)CC#N)c1`, with 75 to 76 °C; and `O=C(COc1ccc2ccccc2c1)NCc1ccc(C(=O)O)cc1`, with 188 to 189 °C; and `CC(C)CN(C[C@H](O)COc1cccc2[nH]c3ccccc3c12)c1ccc(OC(C)(C)C(N)=O)cc1`, with 84 to 86 °C. `CCOC(=O)C(=O)Nc1cc(Br)c2ccccc2c1NC(=O)C(=O)OCC`: the melting point was found to be 164 °C. As to `COc1cc2nc(N)nc(-c3cccc(OC(F)(F)F)c3)c2cc1OC`, the melting point is 233 to 235 °C.

`CSc1c(C(Cc2ccccc2)C(=O)O)ccc2c3ccccc3n(Cc3ccccc3)c12` (stereo not drawn) had a melting point of 154 to 156 °C. As for `O=[N+]([O-])c1cn2c(n1)OC[C@@H](OCc1ccc(-c3nc4cc(OC(F)(F)F)ccc4[nH]3)cc1)C2`, the melting point lay within 98 to 99 °C. As to `O=c1[nH]c2cscc2c(=O)c2cscc12`, the melting point fell in the range of 267 to 270 °C. As to `CCc1[nH]n(C2CCCC2)c2nc(Cc3ccc(C(F)(F)F)cc3)nc(=O)c1-2`, the melting point lay within 212 to 213 °C.

Turning to `C=Cc1cc(C=Cc2cc(C(C)(C)C)cc(C(C)(C)C)c2)cc(C=Cc2cc(C(C)(C)C)cc(C(C)(C)C)c2)c1`, the melting point was 143 to 145 °C.

As for `CC1(C)CC(N(CCO)CC(O)COc2ccc(C(C)(C)c3ccc(OCC(O)CN(CCO)C4CC(C)(C)NC(C)(C)C4)cc3)cc2)CC(C)(C)N1` (stereo not drawn), the melting point was in the range of 69 to 71 °C. The compound `CCOC(=O)c1cccc(-c2coc3c(C)c(O)ccc3c2=O)c1` came in with a melting point of 222 °C. To `O=C(Nc1cc([N+](=O)[O-])cc([N+](=O)[O-])c1)c1cc(Br)ccc1O` belongs 258 to 260 °C. As for `Cc1c(CC(=O)O)c2ccccc2n1-c1ncnc2ccccc12`, the melting point was in the range of 234 to 236 °C. `N#CC1=C(c2ccccc2)Nc2n[nH]cc2C1c1ccccc1Cl` (stereo not drawn): the melting point came out at 158 °C. As to `O=C(Nc1ccccc1C(=O)c1ccc(OC(F)(F)F)cc1)c1ccncc1`, the melting point lay within 112 to 114 °C. On to `Cn1nc(-c2ccc3c(c2)CCNCC3)ccc1=O`, for which the melting point fell in the range of 183 to 185 °C.

Compound `O=C(Nc1cccc(S(=O)(=O)NC2(CO)CCCC2)c1)c1cnn2c(C3CC3)cc(-c3ccc(Cl)cc3)nc12` showed a melting point of 255 to 257 °C. `CCn1c(C(O)(c2cccc(F)c2)c2cccc(F)c2)nc(-c2ccncc2)c1-c1ccc(Cl)cc1` came in with a melting point of 225 to 227 °C.

As to `CC(C)C(=O)N(C)C1CN(C(=O)Nc2ccc(C(F)(F)F)cc2)N=C1c1ccc(Cl)cc1` (stereo not drawn), the melting point lay within 180 to 182 °C. Then `Cc1nc2c3c(c(C(=O)N4CCCC4)cc2n1C)CCC1(Cc2ccccc2C1)N3`, with 263 to 264 °C; and `CN1C(c2ccc(F)cc2)=NC(C(F)(F)F)(C(F)(F)F)C1CC(=O)c1ccc(F)cc1` (stereo not drawn), with 145 to 147 °C. In turn, `COc1ccc(NC(=O)C23CC4CC(CC(C4)C2)C3)cc1OC` came in with a melting point of 224 to 226 °C. The compound `O=C(O)[C@H]1C[C@H](NC(=O)N(c2ccccc2)c2ccccc2)c2c(Cl)cc(Cl)cc2N1` (relative stereo) yielded a melting point of 214 to 216 °C. `Cc1cc(C2=NOC(c3cc(Cl)cc(Cl)c3)(C(F)(F)F)C2)ccc1C(=O)NC1CON(C)C1=O` (stereo not drawn) gave a melting point of 87 °C. Consider `COC(=O)c1c(OCC#N)c2cc(OC)ccc2n1C`, for which the melting point lay within 136 to 137 °C. The compound `O=C1OC(=O)c2c1ccc1ccc3ccccc3c21` displayed a melting point of 245 °C. With `CC(C)CN1C(=O)N(C)C2(NC(=O)NC2=O)c2cc(Cl)ccc21` (stereo not drawn), the melting point stood at 118 °C. `Cc1nc(=O)[nH]c2ccc(N(C)C)cc12` yielded a melting point of 278 to 281 °C.

Take `CC(C)c1nn(-c2ccccn2)cc1CCCOc1ccccc1CC(=O)O`: the melting point lay within 140 to 142 °C. Regarding `Cc1nc2cccc(S(N)(=O)=O)c2s1`, the melting point lay within 223 to 224 °C. Compound `Cc1nc(-c2ccc(OCCCc3ccccc3)cc2)no1` gave a melting point of 78.5 to 79 °C. As for `CCCCCCCCCCCCOC(=O)CC(O)C(=O)OCCCCCCCCCCCC` (stereo not drawn), the melting point lay in the range of 27 to 30 °C. In turn, `COc1cc(C)c2c(c1C)CC(=O)N2` came in with a melting point of 262 to 263 °C. In turn, `CCOC(=O)c1c(N2CCN(C)CC2)c2cc(F)ccc2n(Cc2ccccc2)c1=O` showed a melting point of 156 °C.

Regarding `CN(C)CCCOc1ccc(C[C@H](NC(=O)[C@@H]2CCCN2S(=O)(=O)c2ccc(Cl)s2)C(=O)O)cc1`, the melting point was over 200 °C. Then `COc1ccc(S(=O)(=O)N(CC(N)=O)c2ccc(Cl)cc2Cc2cc(Cl)ccc2Cl)cc1OC`, with 200 °C; and `COCCCn1c(C=O)cc2c3c(c(-c4ccccc4Cl)cc21)C(=O)NC3=O`, with 155 to 156 °C. As to `COc1cc2c(cc1Nc1ncc(Cl)c(Nc3ccc(N(C)C)cc3OC)n1)CCN(CC(=O)N(C)C)CC2`, the melting point lay in the range of 69 to 83 °C. The compound `CC1(C)Cc2c(c(N3CCCC3)nc3sc4c(NCc5ccc(S(N)(=O)=O)cc5)ncnc4c23)CO1` gave a melting point of 295 °C. As to `O=C(O)C1(c2ccccc2)CCN(Cc2ccccc2)CC1`, the melting point was 286 °C. `O=C1c2c(ccc(F)c2Cl)-n2cnc(-c3noc(CCl)n3)c2[C@@H]2CCN12` showed a melting point of 214 to 217 °C. Then `CCCN(c1ncnc2[nH]cnc12)n1cccc1`, with 181 to 183 °C; and `CCCCSC1(SCCCC)CCC2C3CCC4=CC(=O)C=CC4(C)C3(F)C(O)CC21C` (stereo not drawn), with 160 to 162 °C; and `CC(C)(NC(=O)c1nnc2ccc(OCCCN3CCC(OC(c4ccccc4)c4ccccc4)CC3)nn12)C(=O)O`, with 163 to 165 °C.

Compound `O=C(c1ccc2nonc2c1)N1CC=CC1` displayed a melting point of 117 to 118 °C. `COC(=O)c1ccc(C(=O)NCc2cccc3ccccc23)s1` had a melting point of 125 °C. Take `CCCc1nc2c(N)nc3ccccc3c2n1CCCC(N)=O`: the melting point fell in the range of 249 to 251 °C. Then `CN1CC(=O)Nc2ccncc2C1=O`, with 267 to 268 °C. For `CN1C(=O)C(C)(C)N=C(c2ccccc2Cl)c2cc([N+](=O)[O-])cc(Cl)c21`, the melting point came to 254 °C.

In turn, `O=C(OCC1CC1)c1ncn2c1[C@@H]1CCN1C(=O)c1cc(F)ccc1-2` returned a melting point of 171 to 172 °C. `CCCCCC1OCc2cc(C(=O)O)ccc2O1` (stereo not drawn) returned a melting point of 148 °C.

`CCOC(=O)c1ccc(C=C2C=CN(CC)c3ccccc32)c([N+](=O)[O-])c1`: the melting point turned out to be 100 °C. Then `CC(C)(C)c1ccc(C(=O)Nc2cn3cc(C#N)ccc3n2)cc1`, with 300 to 301 °C. For the compound `COc1c(C)c(N2CCN(c3ccc4c(c3)OCCO4)CC2)c(C)c2c1OC(C)(C)C2`, the melting point is 167 to 168 °C. With `Nc1nccc2cc(O)ccc12`, the melting point fell in the range of 258 to 260 °C. Regarding `O=C(NC(=O)c1c(Cl)cccc1Cl)Nc1cc(Cl)c(OC(F)(F)C(F)Cl)cc1Cl` (stereo not drawn), the melting point was 198 to 200 °C. To `C#CCSc1nc(Cl)cc(NCc2ccc(Cl)cc2)n1` belongs 85 to 88 °C. As to `CC(C)C[C@@H](C=O)NC(=O)[C@H](Cc1c[nH]cn1)NC(=O)C(CCCCc1ccccc1)Cc1cccc2ccccc12` (stereo partly drawn), the melting point was 87 to 92 °C. To `Cc1ccc2c(=O)c3cc(C(F)(F)F)ccc3sc2c1` belongs 174 to 178 °C; to `CCc1cc(OCc2ccccc2)cc(=O)o1`, 62 to 63 °C; to `CCOC(=O)c1cnc2cn[nH]c2c1Nc1ccsc1`, 174 to 175 °C. `CCOC(=O)c1cc(CN2C(=O)C3(COc4cc5c(cc43)OCO5)c3ccccc32)oc1C(F)(F)F` (stereo not drawn) displayed a melting point of 162 to 164 °C.

`COC(=O)CCCCCCCCCCNC(=O)C(CSC(C)=O)Cc1ccccc1` (stereo not drawn): the melting point was in the range of 64 to 66 °C. Consider `COc1ccc2c(c1)C(=O)c1ccccc1C2`, for which the melting point was 94.5 to 97.5 °C.

`COc1ccc(-c2[nH]nc3c2C(=O)c2c(NC(=O)NNC(=O)c4ccc(O)cc4)cccc2-3)cc1` yielded a melting point of 283 °C. Regarding `COC(=O)CCc1cc(C(=O)c2ccc(OC)cc2)c(OC)cc1OC`, the melting point was in the range of 114 to 117 °C. Consider `Cc1ccc(N2CCN(CCCN3c4cccc5cccc(c45)S3(=O)=O)CC2)cc1`, for which the melting point is 136 °C.

`COC(=O)c1c(C)nc(C)c(C(=O)O)c1-c1ccccc1[N+](=O)[O-]` gave a melting point of 232 to 233 °C. The compound `CCCN(CCC)C(=O)n1cnc(S(=O)(=O)CC)n1` showed a melting point of 44 to 45 °C. Turning to `CC(=O)NCC(=O)NCC1(SCc2ccccc2)C2CC3CC(C2)CC1C3` (stereo not drawn), the melting point was in the range of 132 to 134 °C. In the case of `CC(C)n1c(=O)n(C(=O)NCC2CCN(CC3(C(=O)O)CCCC3)CC2)c2ccccc21`, the melting point is 165 °C. In the case of `COc1cc2c(c3c1OC(C)(C)C3)C(c1cccc(-c3ccc(NC=O)cc3)c1)=NC(C)(C)C2`, the melting point lay in the range of 129 to 133 °C. Then `CCOC(=O)C1CCN(c2nnc(NCc3ccc4c(c3)OCO4)c3cnccc23)CC1`, with 119 to 120 °C.

`O=C(O)Cc1ccc(NC(=O)C(COc2cccc(Cl)c2)NS(=O)(=O)c2ccc(I)cc2)cc1` (racemic) yielded a melting point of 225 to 226 °C. Compound `CCC(CC)N(O)C(=O)Nc1ccc(-c2ccccc2)cc1` displayed a melting point of 183 to 184 °C. `CC12CCC(C1)C1(C)Oc3ccc(C(=O)c4ccc(C(=O)O)cc4)cc3C21C` (stereo not drawn) came in with a melting point of 262 to 264 °C. Turning to `CCc1ccc(N(Cc2ccc(N(C)C)cc2)C(=O)C2CCCc3ccccc32)cc1` (stereo not drawn), the melting point was 109 to 110 °C. Take `CCCCCC(O)C=CC1C(O)CC(=O)C1CCCCCCC(=O)OCCSS(C)(=O)=O` (stereo not drawn): the melting point fell in the range of 56 to 58 °C.
